Experimental data: US20200270309A1, “MALEIMIDE GROUP-MODIFIED ANGIOGENESIS INHIBITOR HM-1 AND USE THEREOF” (NANJING ANJI BIOLOGICAL TECHNOLOGY CO., LTD, priority 2017, published 2020)
Marks after values point to notes of the source that are not given here. Peptide text beside a SMILES is read from it. * marks the point of attachment. X84 = O=C1C=CC(=O)N1c1ccccc1CCCCCCCCCCCCC(=O)*

Key:
[1] = system: carrageenan-induced toe swelling; test: Carrageenan-induced toe swelling in rats; format: in vivo; settings: SD rats; for Swelling degree 1 h: 1 h after carrageenan; for Swelling degree 3 h: 3 h after carrageenan; for Swelling degree 5 h: 5 h after carrageenan; for Swelling degree 7 h: 7 h after carrageenan
How it was run: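 Rats dosed by injection once daily for 3 d, controls given equal-volume saline. Right hind paw volume measured by water displacement to a marked joint line; swelling degree (mL) is paw volume after carrageenan inflammation minus volume before.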

[2] = system: corneal neovascularization; test: Corneal neovascularization induced by alkali burn in BALB/c mice; format: in vivo; parameters: Inhibition rate (corneal neovascularization): concentration or dose not given beside the values; settings: day 14 after alkali burn, vitreous injection once a day for 1 week
[3] = system: choroidal neovascularization; test: Choroidal neovascularization in rats (laser photocoagulation, FFA); format: in vivo; settings: BN rats
How it was run: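 Male BN rats aged 6-8 weeks were given 8 krypton-laser spots around the optic disc (647.1 nm, 350 mW, 50 μm, 0.05 s). Once the model was confirmed, groups of 5 got daily intravitreal compound at 0.05 μM or saline for 1 week. FFA followed at 3, 7, 14 and 28 days after dosing.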

splenic lymphocytes = test: Proliferation of splenic lymphocytes in mice (ConA, MTT); format: cell-based; settings: ConA-stimulated mouse splenic lymphocytes, 48 h
How it was run: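 Mouse splenocytes (5×10^6 cells/mL, RPMI 1640 with 10% calf serum, red cells lysed) stimulated with ConA plus varying polypeptide concentrations, with blank, ConA-only and Dex groups, 48 h at 37° C. MTT added for 4 h, formazan dissolved in DMSO, OD read at 570 nm; five replicates.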

adjuvant arthritis = test: Rat adjuvant arthritis (AA) animal model; format: in vivo, SD rats; settings: 4.0 mg/kg
[4] = system: human retinal capillary endothelial cells (HRCECs); test: MTT proliferation inhibition on HRCECs; format: cell-based; settings: 48 h; for A570 nm-A630 nm: mean±SD
How it was run: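 HRCECs seeded at 3.0×10^4 cells/mL, adhered overnight, then exposed to polypeptide for 48 h at 37 °C, 5% CO2. MTT added 4 h, formazan dissolved in DMSO, absorbance 570/630 nm; PIR (%) = 1 − treated/negative control, mean±SD of three independent runs.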

[5] = day 3 after administration, total light spot number was 297, 0.05 μM in the vitreous chamber once a day for 1 week
[6] = day 7 after administration, total light spot number was 186, 0.05 μM in the vitreous chamber once a day for 1 week
[7] = day 14 after administration, total light spot number was 137, 0.05 μM in the vitreous chamber once a day for 1 week
[8] = day 28 after administration, total light spot number was 69, 0.05 μM in the vitreous chamber once a day for 1 week
[9] = intravenous in the tail once every five days from day 10, mean±SD

C[C@H](NC(=O)CNC(=O)[C@H](CCCNC(=N)N)NC(=O)CCCCCCCCCCCCc1ccccc1N1C(=O)C=CC1=O)C(=O)N[C@@H](CC(=O)O)C(=O)N[C@@H](CCCNC(=N)N)C(=O)N[C@@H](C)C(=O)NCC(=O)NCC(=O)NCC(=O)NCC(=O)N[C@@H](CCCNC(=N)N)C(=O)NCC(=O)N[C@@H](CC(=O)O)C(=O)O [X24] (X84-RGADRAGGGGRGD-OH)
Swelling degree 1 h ([1]; 2.0 mg/kg once a day for 3 d): 0.24 ± 0.16 mg
Swelling degree 3 h ([1]; 2.0 mg/kg once a day for 3 d): 0.34 ± 0.18 mg
Swelling degree 5 h ([1]; 2.0 mg/kg once a day for 3 d): 0.43 ± 0.12 mg
Swelling degree 7 h ([1]; 2.0 mg/kg once a day for 3 d): 0.38 ± 0.13 mg
Swelling degree 1 h ([1]; 4.0 mg/kg once a day for 3 d): 0.23 ± 0.17 mg
Swelling degree 3 h ([1]; 4.0 mg/kg once a day for 3 d): 0.35 ± 0.13 mg
Swelling degree 5 h ([1]; 4.0 mg/kg once a day for 3 d): 0.38 ± 0.16 mg
Swelling degree 7 h ([1]; 4.0 mg/kg once a day for 3 d): 0.32 ± 0.12 mg
Inhibition rate (corneal neovascularization) [2]: 46.24%
MVD (corneal microvessel density) [2]: 36.15 ± 4.199
CNV Incidence (%) [3, 5]: 54.21%
Leakage Light spot number [3, 5]: 161
CNV Incidence (%) [3, 6]: 49.46%
Leakage Light spot number [3, 6]: 92
CNV Incidence (%) [3, 7]: 45.99%
Leakage Light spot number [3, 7]: 63
CNV Incidence (%) [3, 8]: 44.93%
Leakage Light spot number [3, 8]: 31
A570 nm/A630 nm (splenic lymphocytes; polypeptide dose 0.05 μM): 0.5823 ± 0.0474
Inhibition rate (%) (splenic lymphocytes; polypeptide dose 0.05 μM): 14.12%
A570 nm/A630 nm (splenic lymphocytes; polypeptide dose 0.1 μM): 0.5615 ± 0.1155
Inhibition rate (%) (splenic lymphocytes; polypeptide dose 0.1 μM): 16.86%
A570 nm/A630 nm (splenic lymphocytes; polypeptide dose 0.2 μM): 0.5142 ± 0.0636
Inhibition rate (%) (splenic lymphocytes; polypeptide dose 0.2 μM): 23.87%
Clinical score (adjuvant arthritis; intravenous in the tail once every five days from day 10, four paws scored 0-4, max 16, mean±SD): 5.73 ± 1.15
Joint swelling degree (adjuvant arthritis; [9]): 0.76 ± 0.15 mm
Left and right paw swelling degree (adjuvant arthritis; [9]): 3.94 ± 0.70 mm
Inhibition rate (%) ([4]; dose 0.05 μM): 40.01%*
A570 nm-A630 nm ([4]; dose 0.05 μM): 0.7929 ± 0.02399
Inhibition rate (%) ([4]; dose 0.1 μM): 44.87%**
A570 nm-A630 nm ([4]; dose 0.1 μM): 0.7286 ± 0.00571
Inhibition rate (%) ([4]; dose 0.2 μM): 49.60%*
A570 nm-A630 nm ([4]; dose 0.2 μM): 0.6661 ± 0.02372
